Reference: the supplement of paper PMC10307832

How the values were obtained:
Test in all cases: relative viability (nuclei count vs DMSO), 5 days (fraction); higher = more cells survive
[1] = compound: CC1=NN=C(O1)C2=NN=C(C=C2)N3CCC(CC3)OC4=C(C=CC(=C4)F)Cl + CC(C)C[C@H](NC(=O)[C@H](Cc1ccccc1)NC(=O)c1cnccn1)B(O)O [Bortezomib] (partner 0.002 µM)
How it was run: (§1)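 Relative viability equals treated-well nuclei counts divided by vehicle-well nuclei counts. Counts came from 4× images of lung cancer cell lines grown in 1536-well plates for 5 days after pin-tool dosing on the day after seeding. Dosing used one drug alone or a fixed anchor-drug dose plus five library-drug doses (not always all listed) in √10 steps, and values are medians of duplicate plates.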

Tosedostat + Olaparib = compound: CC(C)C[C@@H](C(=O)N[C@H](C(=O)OC1CCCC1)c1ccccc1)[C@H](O)C(=O)NO [Tosedostat] + O=C(c1cc(Cc2n[nH]c(=O)c3ccccc23)ccc1F)N1CCN(C(=O)C2CC2)CC1 [Olaparib] (partner 8 µM)
How it was run: as §1

Tosedostat + Alpelisib = compound: CC(C)C[C@@H](C(=O)N[C@H](C(=O)OC1CCCC1)c1ccccc1)[C@H](O)C(=O)NO [Tosedostat] + Cc1nc(NC(=O)N2CCC[C@H]2C(N)=O)sc1-c1ccnc(C(C)(C)C(F)(F)F)c1 [Alpelisib] (partner 2 µM)
How it was run: as §1

[2] = compound: CC1=NN=C(O1)C2=NN=C(C=C2)N3CCC(CC3)OC4=C(C=CC(=C4)F)Cl + C[C@]1(O)C[C@@H](c2nc(-c3ccc4ccc(-c5ccccc5)nc4c3)c3c(N)nccn32)C1 [Linsitinib] (partner 1 µM)
How it was run: as §1

In the case of NCI-H2126, the relative viability ([1]; first compound 0.253 µM) is reported as 0.965, the relative viability ([1]; first compound 0.8 µM) is reported as 0.907 and the relative viability ([1]; first compound 2.53 µM) is reported as 0.842. For the same cell line, the relative viability ([1]; first compound 8 µM) was 0.837, the relative viability (Tosedostat + Olaparib; first compound 0.02 µM) was 0.897 and the relative viability (Tosedostat + Olaparib; first compound 0.06325 µM) was 0.979. The relative viability (Tosedostat + Olaparib; first compound 0.2 µM) was 0.843, the relative viability (Tosedostat + Olaparib; first compound 0.6325 µM) was 0.769 and the relative viability (Tosedostat + Olaparib; first compound 2 µM) was 0.757. The relative viability (Tosedostat + Alpelisib; first compound 0.02 µM) was 0.664, the relative viability (Tosedostat + Alpelisib; first compound 0.06325 µM) was 0.744 and the relative viability (Tosedostat + Alpelisib; first compound 0.2 µM) was 0.757. It also gave a relative viability (Tosedostat + Alpelisib; first compound 0.6325 µM) of 0.774, a relative viability (Tosedostat + Alpelisib; first compound 2 µM) of 0.661 and a relative viability ([2]; first compound 0.253 µM) of 0.67. For the same cell line, the relative viability ([2]; first compound 0.8 µM) was 0.64, the relative viability ([2]; first compound 2.53 µM) was 0.753 and the relative viability ([2]; first compound 8 µM) was 0.505.
